Assay results reported in patent US20150105252A1, “SUBSTITUTED PYRAZOLES AS HERBICIDES” (E I DU PONT DE NEMOURS AND COMPANY, priority 2013, published 2015).

Experiments:
foxtail, green = test: Test E preemergence; format: in vivo, Setaria viridis; settings: 21 days, scale 0 to 100
Text: (§1) Seeds of plant species selected from bermudagrass (Cynodon dactylon), Surinam grass (Brachiaria decumbens), crabgrass, large (large crabgrass, Digitaria sanguinalis), crabgrass, naked (naked crabgrass, Digitaria nuda), foxtail, green (green foxtail, Setaria viridis), johnsongrass (Sorghum halepense), kochia (Kochia scoparia), morningglory (pitted morningglory, Ipomoea lacunosa), nutsedge, purple (purple nutsedge, Cyperus rotundus), ragweed (common ragweed, Ambrosia elation), mustard, black (black mustard, Brassica nigra), guineagrass (Panicum maximum), dallisgrass (Paspalum dilatatum), barnyardgrass (Echinochloa crus-galli), sandbur (southern sandbur, Cenchrus echinatus), sowthistle (common sowthistle, Sonchus oleraceous), ryegrass, Italian (Italian ryegrass, Lolium multiflorum), signalgrass (broadleaf signalgrass, Brachiaria platyphylla), dayflower, VA (Virginia (VA) dayflower, Commelina virginica), bluegrass (annual bluegrass, Poa annua), quackgrass (Elytrigia repens), mallow (common mallow, Malva sylvestris), buckwheat, wild (wild buckwheat, Polygonum convolvulus), leafy spurge (Euphorbia esula), common chickweed (Stellaria media), wild poinsettia (Euphorbia heterophylla), pigweed, palmer (palmer pigweed, Amaranthus palmeri), and pigweed (redroot pigweed, Amaranthus retroflexus) were planted into a blend of loam soil and sand and treated preemergence with test chemicals formulated in a non-phytotoxic solvent mixture which included a surfactant.
(§2) Treated plants and controls were maintained in a greenhouse for 21 days, after which time all species were compared to controls and visually evaluated. Plant response ratings, summarized in Table E, are based on a scale of 0 to 100 where 0 is no effect and 100 is complete control. A dash (-) response means no test result.

bermudagrass = test: Test E preemergence; format: in vivo, Cynodon dactylon; settings: 21 days, scale 0 to 100
Text: as §1, §2

field bindweed = test: Test F postemergence; format: in vivo, Convolvulus arvensis; settings: scale 0 to 100
Text: Seeds of plant species selected from corn (Zea mays), soybean (Glycine max), velvetleaf (Abutilon theophrasti), lambsquarters (Chenopodium album), wild poinsettia (Euphorbia heterophylla), pigweed, palmer (palmer pigweed, Amaranthus palmeri), common waterhemp (Amaranthus rudis), surinam grass (Brachiaria decumbens), large crabgrass (Digitaria sanguinalis), crabgrass, Brazil (Brazilian crabgrass, Digitaria horizontalis), fall panicum (Panicum dichotomiflorum), giant foxtail (Setaria faberii), green foxtail (Setaria viridis), goosegrass (Eleusine indica), johnsongrass (Sorghum halepense), common ragweed (Ambrosia elation), barnyardgrass (Echinochloa crus-galli), southern sandbur (Cenchrus echinatus), arrowleaf sida (Sida rhombifolia), Italian ryegrass (Lolium multiflorum), dayflower, VA (Virginia (VA) dayflower, Commelina virginica), field bindweed (Convolvulus arvensis), cocklebur (common cocklebur, Xanthium strumarium), morningglory (Ipomoea coccinea), nightshade (eastern black nightshade, Solanum ptycanthum), kochia (Kochia scoparia), yellow nutsedge (Cyperus esculentus), and hairy beggarticks (Bidens pilosa), were planted into a silt loam soil and treated preemergence with test chemicals formulated in a non-phytotoxic solvent mixture which included a surfactant.
At the same time, plants from these crop and weed species and also horseweed (Canada horseweed, Conyza canadensis), smartweed (ladysthumb smartweed, Polygonum persicaria), waterhemp_RES1, (ALS & Triazine resistant common waterhemp, Amaranthus rudis), and waterhemp_RES2, (ALS & HPPD resistant common waterhemp, Amaranthus rudis) were treated with postemergence applications of test chemicals formulated in the same manner. Plants ranged in height from 2 to 18 cm for postemergence treatments (1- to 4-leaf stage). Treated plants and controls were maintained in a greenhouse for 14 to 21 days, after which time all species were compared to controls and visually evaluated. Plant response ratings, summarized in Table F, are based on a scale of 0 to 100 where 0 is no effect and 100 is complete control. A dash (-) response means no test result.

kochia = test: Test E preemergence; format: in vivo, Kochia scoparia; settings: 21 days, scale 0 to 100
Text: as §1, §2

bluegrass = test: Test E preemergence; format: in vivo, Poa annua; settings: 21 days, scale 0 to 100
Text: as §1, §2

rice = test: Test C flooded paddy test; format: in vivo, Oryza sativa; settings: Flood
Outline: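 Visual injury ratings against untreated controls, taken 13 to 15 days after compound was added to paddy water standing 3 cm above the soil.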

[1] = 31 g ai/ha, scale 0 to 100 (0 no effect, 100 complete control)
[2] = 62 g ai/ha, scale 0 to 100 (0 no effect, 100 complete control)
[3] = 125 g ai/ha, scale 0 to 100 (0 no effect, 100 complete control)

SMILES	Plant response rating, Foxtail, Green (foxtail, green; 16 g ai/ha)	Plant response rating, Foxtail, Green (foxtail, green; 31 g ai/ha)	Plant response rating, Foxtail, Green (foxtail, green; 62 g ai/ha)	Plant response rating, Foxtail, Green (foxtail, green; 125 g ai/ha)	Plant response rating, Foxtail, Green (foxtail, green; 250 g ai/ha)	Plant response rating, Bermudagrass (bermudagrass; 16 g ai/ha)	Plant response rating, Bermudagrass (bermudagrass; 31 g ai/ha)	Plant response rating, Bermudagrass (bermudagrass; 62 g ai/ha)	Plant response rating, Bermudagrass (bermudagrass; 125 g ai/ha)	Plant response rating, Bermudagrass (bermudagrass; 250 g ai/ha)	Plant response rating, Field Bindweed (field bindweed; Postemergence, 31 g ai/ha)	Plant response rating, Field Bindweed (field bindweed; Postemergence, 125 g ai/ha)	Plant response rating, Kochia (kochia; 16 g ai/ha)	Plant response rating, Kochia (kochia; 31 g ai/ha)	Plant response rating, Kochia (kochia; 62 g ai/ha)	Plant response rating, Bluegrass (bluegrass; 16 g ai/ha)	Plant response rating, Bluegrass (bluegrass; 31 g ai/ha)	Plant response rating, Bluegrass (bluegrass; 62 g ai/ha)	Plant response rating, Rice (rice; [1])	Plant response rating, Rice (rice; [2])	other results
CCc1cc(C(=O)NCC(F)(F)F)nn1Cc1ccnc(C(F)(F)F)c1 [Compound 78, 5-ethyl-N-(2,2,2-trifluoroethyl)-1-[[(2-trifluoromethyl)-4-pyridinyl]methyl]-1H-pyrazole-3-carboxamide]	50	100	100	100	100	70	85	100	100	100	40	90	100	100	100	40	75	90	–	–	Plant response rating, Field Bindweed (field bindweed; Postemergence, 250 g ai/ha): 95; Plant response rating, Field Bindweed (field bindweed; postemergence, 62 g ai/ha): 70; Plant response rating, Field Bindweed (field bindweed; postemergence, 500 g ai/ha): 98; Plant response rating, Kochia (kochia; 125 g ai/ha): 100; Plant response rating, Kochia (kochia; 250 g ai/ha): 100; Plant response rating, Bluegrass (bluegrass; 125 g ai/ha): 100; Plant response rating, Bluegrass (bluegrass; 250 g ai/ha): 100
CCc1cc(C(=O)NC(C)C)nn1Cc1ccnc(C(F)(F)F)c1 [Compound 103]	100	100	100	100	100	80	98	100	98	100	–	–	95	100	100	40	90	95	–	–	Plant response rating, Kochia (kochia; 125 g ai/ha): 100; Plant response rating, Kochia (kochia; 250 g ai/ha): 100; Plant response rating, Bluegrass (bluegrass; 125 g ai/ha): 98; Plant response rating, Bluegrass (bluegrass; 250 g ai/ha): 100
CCOc1cc(C(=O)NCC(F)(F)F)nn1Cc1ccnc(C(F)(F)F)c1 [Compound 104]	100	100	100	100	100	90	95	98	100	100	70	90	100	100	100	85	100	100	–	–	Plant response rating, Field Bindweed (field bindweed; Postemergence, 250 g ai/ha): 90; Plant response rating, Field Bindweed (field bindweed; postemergence, 62 g ai/ha): 70; Plant response rating, Field Bindweed (field bindweed; postemergence, 500 g ai/ha): 95; Plant response rating, Kochia (kochia; 125 g ai/ha): 100; Plant response rating, Kochia (kochia; 250 g ai/ha): 100; Plant response rating, Bluegrass (bluegrass; 125 g ai/ha): 100; Plant response rating, Bluegrass (bluegrass; 250 g ai/ha): 100
CCCNC(=O)c1cc(CCCl)n(Cc2ccnc(C(F)(F)F)c2)n1 [Compound 145]	–	–	–	–	–	–	–	–	–	–	–	–	–	–	–	–	–	–	0	20	Plant response rating, Rice (rice; 125 g ai/ha, scale 0 to 100): 25; Plant response rating, Rice (rice; 250 g ai/ha, scale 0 to 100): 40
CCOc1cc(C(=O)NC(C)C)nn1Cc1ccnc(C(F)(F)F)c1 [Compound 188]	–	–	–	–	–	–	–	–	–	–	70	90	–	–	–	–	–	–	–	–	Plant response rating, Field Bindweed (field bindweed; Postemergence, 250 g ai/ha): 95; Plant response rating, Field Bindweed (field bindweed; postemergence, 62 g ai/ha): 70; Plant response rating, Field Bindweed (field bindweed; postemergence, 500 g ai/ha): 95
CCOc1cc(C(=O)NC2CC2)nn1Cc1ccnc(C(F)(F)F)c1 [Compound 189]	100	100	100	–	–	65	85	98	–	–	–	–	100	100	100	50	50	80	–	–	Plant response rating, Foxtail, Green (foxtail, green; 4 g ai/ha): 0; Plant response rating, Foxtail, Green (foxtail, green; 8 g ai/ha): 20; Plant response rating, Bermudagrass (bermudagrass; 4 g ai/ha): 0; Plant response rating, Bermudagrass (bermudagrass; 8 g ai/ha): 0; Plant response rating, Kochia (kochia; 4 g ai/ha): 98; Plant response rating, Kochia (kochia; 8 g ai/ha): 100; Plant response rating, Bluegrass (bluegrass; 4 g ai/ha): 0; Plant response rating, Bluegrass (bluegrass; 8 g ai/ha): 0
CCONC(=O)c1cc(OCC)n(Cc2ccnc(C(F)(F)F)c2)n1 [Compound 195]	–	–	–	–	–	–	–	–	–	–	–	–	–	–	–	–	–	–	0	0	Plant response rating, Rice (rice; [3]): 0; Plant response rating, Rice (rice; 250 g ai/ha, scale 0 to 100): 20
CCc1cc(C(=O)NC2CC2)nn1Cc1ccnc(OCC(F)(F)F)c1 [Compound 200]	–	–	–	–	–	–	–	–	–	–	–	–	–	–	–	–	–	–	0	0	Plant response rating, Rice (rice; [3]): 15; Plant response rating, Rice (rice; 250 g ai/ha, scale 0 to 100): 20
CCc1cc(C(=O)NC2CC2)nn1Cc1cc(C(F)(F)C(F)(F)F)nn1C [Compound 226]	–	–	–	–	–	–	–	–	–	–	–	–	–	–	–	–	–	–	0	0	Plant response rating, Rice (rice; [3]): 0
